Reference: the supplement of paper PMC11208160

Test: recombinant UMI read abundance after kanamycin selection (control-corrected) (log10(CPM+1)); higher = more efficient recombination; extreme values may be limits of the assay; sequences stand for … in AGTGCAGAGAAAATCGGCCAGTTTTCTCTGCCTGCAGTCCGCATGCCGTGGGACCCCTTGGGTTCTAACCTGTTGCCTAGATTTATGCAGCGGACTGCCTTTCTCCCAAAGTGATAAACCGG…AGGTTGGTTTCACT; site = the 11-nt donor
Method: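 Pooled E. coli donor-specificity screen for the IS621 bridge recombinase. Each library member carries a reprogrammed 11-nt donor and a full-length LE bridge RNA expressed in cis from the natural promoter, with a paired donor-binding loop (8-nt LDG + 4-nt RDG) and a target-binding loop fixed to T5. It is co-electroporated with a T5 target plasmid; recombinase is induced with 0.07 mM IPTG and recombinants are selected on kanamycin. UMIs are counted as CPM, averaged over two biological replicates and corrected by the unselected control. Molecule = full bridge RNA written as DNA, built from the T5 scaffold: LDG = donor specificity nt 1-8, RDG = reverse complement of nt 8-11.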
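Also: IS621 bridge recombinase in Escherichia coli cells against a fixed T5 target plasmid.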

| Sequence | recombinant UMI read abundance (log10) |
| --- | --- |
| GGCAATCCATGGACCGGTTTTCCCGGTAATCCGTATTTGGA (site GGCAATCCTTG) | 0 |
| CGATCATCATGGACCGGTTTTCCCGGTAATCCGTATTTGCT (site CGACCATCTAC) | 0 |
| TAATGAGCATGGACCGGTTTTCCCGGTAATCCGTATTTGGG (site TAAAGAGCTCC) | 0.00438 |
| ACCTACACATGGACCGGTTTTCCCGGTAATCCGTATTTGGG (site ACCTAGACTCC) | 0.00747 |
| ACTAGAACATGGACCGGTTTTCCCGGTAATCCGTATTTGAA (site ACTAGAACTGT) | 0 |
| ACATTACCATGGACCGGTTTTCCCGGTAATCCGTATTTGCA (site ACAGTATCTTG) | 1.21 |
| CCAGTCACATGGACCGGTTTTCCCGGTAATCCGTATTTGGG (site CCAGTCACTCC) | 0.026 |
| CCCCCCACATGGACCGGTTTTCCCGGTAATCCGTATTTGTA (site CCCCCCACTTA) | 0.82 |
| GTTCGAGCATGGACCGGTTTTCCCGGTAATCCGTATTTGGA (site GTTCGAGCTTG) | 0 |
| CACTTCCCATGGACCGGTTTTCCCGGTAATCCGTATTTGCT (site CACTTCCCTAG) | 0.617 |
| CGTTAGACATGGACCGGTTTTCCCGGTAATCCGTATTTGAG (site CATTAGACTCT) | 0.498 |
| CCAGTCACATGGACCGGTTTTCCCGGTAATCCGTATTTGGG (site CAAGTCACTCC) | 0.0155 |
| GTCGGTCCATGGACCGGTTTTCCCGGTAATCCGTATTTGAA (site GTCGGTCCTTT) | 0.0112 |
| CGATCATCATGGACCGGTTTTCCCGGTAATCCGTATTTGCT (site CGAGCATCTTG) | 0 |
| GAAGATTCATGGACCGGTTTTCCCGGTAATCCGTATTTGTC (site GAAGATTCTGA) | 2.29 |
| CGTTAGACATGGACCGGTTTTCCCGGTAATCCGTATTTGAG (site CGTTAGGCTCT) | 0.214 |
| CGCCCTACATGGACCGGTTTTCCCGGTAATCCGTATTTGAG (site CACCCTACTCT) | 0.475 |
| TGAGTCACATGGACCGGTTTTCCCGGTAATCCGTATTTGAC (site TGAGTCACTGT) | 2.61 |
| TAAAGTGCATGGACCGGTTTTCCCGGTAATCCGTATTTGTA (site TAAAGTGCTTA) | 2.22 |
| GATCCAACATGGACCGGTTTTCCCGGTAATCCGTATTTGTA (site GGTCCAACTTA) | 0.021 |
| CCATTATCATGGACCGGTTTTCCCGGTAATCCGTATTTGCT (site CGATCATCTAG) | 0 |
| GGTAAACCATGGACCGGTTTTCCCGGTAATCCGTATTTGAT (site GGTAAACCTAT) | 0 |
| CGCCGTACATGGACCGGTTTTCCCGGTAATCCGTATTTGCT (site CGCAGTACTAG) | 0.331 |
| AAGAAGCCATGGACCGGTTTTCCCGGTAATCCGTATTTGCA (site AGGAAGACTTG) | 0.00613 |

| Sequence | recombinant UMI read abundance (log10) |
| --- | --- |
| CACTCCTCATGGACCGGTTTTCCCGGTAATCCGTATTTGCC (site CAGTCCTCTGG) | 1.2 |
| ACAGGAACATGGACCGGTTTTCCCGGTAATCCGTATTTGTC (site ACACGAACTGA) | 0.428 |
| CGCCACTCATGGACCGGTTTTCCCGGTAATCCGTATTTGCG (site CGCCACTCTCG) | 2.05 |
| ACATCTACATGGACCGGTTTTCCCGGTAATCCGTATTTGTG (site ACATCGACTCA) | 0.0136 |
| CAGTGGACATGGACCGGTTTTCCCGGTAATCCGTATTTGTG (site CAGTGGACTCA) | 1.57 |
| CTTCACTCATGGACCGGTTTTCCCGGTAATCCGTATTTGTA (site CTTCCCTCTTA) | 0.00659 |
| AAGTTCCCATGGACCGGTTTTCCCGGTAATCCGTATTTGTG (site AAGTTCCCTCA) | 0.111 |
| AGTACTGCATGGACCGGTTTTCCCGGTAATCCGTATTTGGT (site AGTACTGCTAC) | 0.745 |
| CTAGCATCATGGACCGGTTTTCCCGGTAATCCGTATTTGAA (site CTAGCATCTTT) | 2.86 |
| TAATGAGCATGGACCGGTTTTCCCGGTAATCCGTATTTGGG (site TAATGAGCTTC) | 0.0139 |
| CCGATAGCATGGACCGGTTTTCCCGGTAATCCGTATTTGTG (site CCGATAGCTCA) | 0.0444 |
| CCCCTCACATGGACCGGTTTTCCCGGTAATCCGTATTTGTA (site CCCCACACTTA) | 0.0243 |
| CACCTTACATGGACCGGTTTTCCCGGTAATCCGTATTTGGG (site CACCTTACTCC) | 0.0575 |
| AGTGTCTCATGGACCGGTTTTCCCGGTAATCCGTATTTGAG (site AGTGTCTCTCT) | 1.2 |
| AACCGTCCATGGACCGGTTTTCCCGGTAATCCGTATTTGAT (site AACCGTCCTAT) | 0.252 |
| CGCCGTACATGGACCGGTTTTCCCGGTAATCCGTATTTGCT (site CGCCGTACTTG) | 0.00335 |
| GCCACGCCATGGACCGGTTTTCCCGGTAATCCGTATTTGGA (site GCCACGCCTTC) | 0.0144 |
| TCCACGGCATGGACCGGTTTTCCCGGTAATCCGTATTTGCG (site TCCACTGCTCG) | 0 |
| AGTCAGACATGGACCGGTTTTCCCGGTAATCCGTATTTGGC (site AGTCAGACTGC) | 2.34 |
| CGATCATCATGGACCGGTTTTCCCGGTAATCCGTATTTGCT (site CGATGATCTAT) | 0.00469 |
| GGTCCAACATGGACCGGTTTTCCCGGTAATCCGTATTTGTA (site GGTCCAACTTG) | 0.016 |
| CACCGTACATGGACCGGTTTTCCCGGTAATCCGTATTTGCG (site CACCGTACTCG) | 1.35 |
| AGGTTCACATGGACCGGTTTTCCCGGTAATCCGTATTTGTG (site AGGTTCGCTCA) | 0.00639 |
| ACACAGCCATGGACCGGTTTTCCCGGTAATCCGTATTTGAC (site ACACAACCTGT) | 0 |

| Sequence | recombinant UMI read abundance (log10) |
| --- | --- |
| GTGGAGTCATGGACCGGTTTTCCCGGTAATCCGTATTTGTG (site GTGGAGCCTCA) | 0.572 |
| CACTCCGCATGGACCGGTTTTCCCGGTAATCCGTATTTGCC (site CACTCCACTGG) | 2.05 |
| CCCCTCGCATGGACCGGTTTTCCCGGTAATCCGTATTTGAA (site CCCCTCGCTTT) | 0.801 |
| CAAGTCCCATGGACCGGTTTTCCCGGTAATCCGTATTTGGG (site CAAGTCACTCC) | 0.0127 |
| CGTTAGACATGGACCGGTTTTCCCGGTAATCCGTATTTGAG (site CGTTGGACTCT) | 0.013 |
| CGGAATCCATGGACCGGTTTTCCCGGTAATCCGTATTTGTT (site TTGAATCCTAA) | 0.00378 |
| AGGGTGCCATGGACCGGTTTTCCCGGTAATCCGTATTTGGG (site AGGGTGCCTCC) | 0.0268 |
| GGTACGTCATGGACCGGTTTTCCCGGTAATCCGTATTTGAT (site GGTACGTCTAT) | 0.46 |
| CCCCGTACATGGACCGGTTTTCCCGGTAATCCGTATTTGCT (site CCCCGTACTAG) | 1.56 |
| CGTTAGACATGGACCGGTTTTCCCGGTAATCCGTATTTGAG (site CGTTCGACTCT) | 0.00605 |
| CGATCATCATGGACCGGTTTTCCCGGTAATCCGTATTTGCT (site CGGGCATCTAG) | 0 |
| GTGAAGGCATGGACCGGTTTTCCCGGTAATCCGTATTTGTG (site GTGTAGGCTCA) | 0.977 |
| CGTGGACCATGGACCGGTTTTCCCGGTAATCCGTATTTGTT (site CGTGGAGCTAA) | 0.0186 |
| TAAAGTCCATGGACCGGTTTTCCCGGTAATCCGTATTTGTA (site TAAAATCCTTA) | 0 |
| GGTGACTCATGGACCGGTTTTCCCGGTAATCCGTATTTGAC (site GGTGACTCTGT) | 2.47 |
| GGGCATGCATGGACCGGTTTTCCCGGTAATCCGTATTTGGT (site GAGCATGCTAC) | 0.336 |
| ACTAGTGCATGGACCGGTTTTCCCGGTAATCCGTATTTGGG (site ACTAGTGCTTC) | 0.021 |
| AAGGACGCATGGACCGGTTTTCCCGGTAATCCGTATTTGCC (site AAGGACGCTGG) | 2.85 |
| GGAACGACATGGACCGGTTTTCCCGGTAATCCGTATTTGAT (site GGAACGACTAT) | 1.43 |
| CAGGAAACATGGACCGGTTTTCCCGGTAATCCGTATTTGCA (site CGGGAAACTTG) | 0 |
| AGGAAGCCATGGACCGGTTTTCCCGGTAATCCGTATTTGCA (site AGGAAGGCTTG) | 0 |
| GGAATGCCATGGACCGGTTTTCCCGGTAATCCGTATTTGCA (site GGAATGCCTTG) | 0 |
| GACAAACCATGGACCGGTTTTCCCGGTAATCCGTATTTGGT (site GACAAACCTAA) | 0 |
| ACTAGAACATGGACCGGTTTTCCCGGTAATCCGTATTTGAT (site ACTAGAACTCT) | 0.0111 |
